Target: T1, TRPC5:C5 (Homo sapiens, UniProt Q9UL62)
T1 construct: expressed in transfected cells; host or cells: HEK T-REx (tetracycline-induced)
T1 sequence (Q9UL62 1-973): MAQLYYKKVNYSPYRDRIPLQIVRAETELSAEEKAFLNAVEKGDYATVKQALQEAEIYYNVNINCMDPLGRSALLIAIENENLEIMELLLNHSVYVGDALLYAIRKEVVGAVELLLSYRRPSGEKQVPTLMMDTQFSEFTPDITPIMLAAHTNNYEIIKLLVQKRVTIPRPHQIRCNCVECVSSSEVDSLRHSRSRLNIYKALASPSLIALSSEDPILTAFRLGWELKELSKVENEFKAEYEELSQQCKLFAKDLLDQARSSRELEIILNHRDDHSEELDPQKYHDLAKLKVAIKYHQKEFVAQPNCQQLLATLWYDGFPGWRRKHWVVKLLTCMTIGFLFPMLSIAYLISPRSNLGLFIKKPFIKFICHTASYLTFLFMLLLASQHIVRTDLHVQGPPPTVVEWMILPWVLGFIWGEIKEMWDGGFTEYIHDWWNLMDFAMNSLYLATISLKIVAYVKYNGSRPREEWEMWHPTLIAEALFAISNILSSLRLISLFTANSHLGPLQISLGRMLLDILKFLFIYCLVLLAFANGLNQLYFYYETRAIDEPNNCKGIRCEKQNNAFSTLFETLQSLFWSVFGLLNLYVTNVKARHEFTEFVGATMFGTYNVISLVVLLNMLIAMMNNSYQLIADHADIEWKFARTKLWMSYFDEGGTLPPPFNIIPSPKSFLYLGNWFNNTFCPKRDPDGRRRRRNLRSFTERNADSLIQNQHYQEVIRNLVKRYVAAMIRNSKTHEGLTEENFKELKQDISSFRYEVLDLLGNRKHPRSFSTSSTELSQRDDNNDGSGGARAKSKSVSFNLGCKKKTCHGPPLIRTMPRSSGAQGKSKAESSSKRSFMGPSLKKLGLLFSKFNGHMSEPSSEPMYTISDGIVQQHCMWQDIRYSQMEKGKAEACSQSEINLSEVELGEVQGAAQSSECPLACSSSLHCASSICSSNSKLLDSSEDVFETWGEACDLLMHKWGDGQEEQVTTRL
Assay: [Ca2+]i recordings (Fura-2), TRPC5:C5 in HEK T-REx cells
Assay type: cell-based
Details: for IC50: HEK T-REx, 30 min preincubation
Description: Based on the findings described above, we wondered whether AC1903—which is typically used as a TRPC5 inhibitor at concentrations of 30–100 μM in cellular assays ([29], [56])—might have limited selectivity for TRPC5 channels and whether its effect on intracellular G418 levels and PTC readthrough might be the consequence of inhibition of other or multiple targets. All well-characterized TRPC channel inhibitors reported to date modulate multiple TRP(C) channels ([34], [35], [36]). […] Because limited data for the selectivity of AC1903 are available in the public domain, we decided to profile AC1903 against a selection of calcium-permeable cation channels by intracellular calcium ([Ca^2+]i) recordings using well-characterized cell lines and TRP channel activators ([46], [57], [58]), and the Ca^2+ indicator Fura-2. In these assays, cells (HEK 293, HEK T-REx, or CHO) overexpressing the relevant ion channel protein and loaded with Fura-2 AM (a cell-permeable precursor of Fura-2) were preincubated with various concentrations of AC1903 or vehicle (DMSO) for 30 min. Then, changes in ratiometric fluorescence (from background) were recorded upon addition of the respective ion channel activator.
Figure 4 AC1903 inhibits multiple TRP channels.A and C, representative [Ca^2+]i measurements from a single 96-well plate (N = 6; mean ± SD over technical replicates) showing inhibition of EA-mediated [Ca^2+]i responses by 0.1 to 100 μM AC1903 in (Tet+) HEK T-REx cells expressing TRPC5 (A) or TRPC4 (C). B and D, concentration–response data for experiments in (A) and (C) (scatter plots showing normalized data for three independent experiments; n/N = 3/18). Responses were calculated at 250 to 295 s compared to [Ca^2+]i at baseline (0–55 s). E and G, representative [Ca^2+]i measurements from a single 96-well plate (N = 6; mean ± SD over technical replicates) showing inhibition of OAG-mediated [Ca^2+]i responses by 0.1 to 100 μM AC1903 in (Tet+) HEK T-REx cells expressing TRPC3 (E) and WT HEK 293 cells transiently expressing TRPC6 (G). F and H, concentration–response data for experiments in (E) and (G) (scatter plots showing normalized data for three independent experiments; n/N = 3/18). Responses were calculated at 90 to 110 s compared with [Ca^2+]i at baseline (0–55 s). I, representative [Ca^2+]i measurements from a single 96-well plate (N = 6; mean ± SD over technical replicates) showing inhibition of the 4α-PDD-mediated [Ca^2+]i response by 0.1 to 100 μM AC1903 in CHO cells stably expressing TRPV4. J, concentration–response data for experiments in (I) (scatter plot showing normalized data for three independent experiments; n/N = 3/18). Responses were calculated at 290 to 300 s compared with [Ca^2+]i baseline (0–55 s). EA, (-)-englerin A; TRPC, transient receptor potential canonical. […]

IC50 (activator EA (30 nM)): 18 µM
IC50 (activator S1P (10 μM)): 3.5 µM
Hill slope (activator EA (30 nM)): -1.8
Hill slope (activator S1P (10 μM)): -1.6
SMILES: c1ccc(Cn2c(NCc3ccco3)nc3ccccc32)cc1 [AC1903]

Source: article PMC8808171, “Nonselective TRPC channel inhibition and suppression of aminoglycoside-induced premature termination codon readthrough by the small molecule AC1903” (The Journal of Biological Chemistry, 2022)
